Assay [1] deals with T1, Trypsin (Bos taurus, UniProt P00760).
T1 sequence (P00760 24-246): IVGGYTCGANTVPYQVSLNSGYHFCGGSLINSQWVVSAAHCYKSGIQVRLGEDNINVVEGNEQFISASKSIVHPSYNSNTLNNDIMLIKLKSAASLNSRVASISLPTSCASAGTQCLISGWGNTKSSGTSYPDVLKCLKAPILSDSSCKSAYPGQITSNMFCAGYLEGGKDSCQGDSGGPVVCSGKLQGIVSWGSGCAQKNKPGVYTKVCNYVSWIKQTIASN
The assay can be described thus: Anti-trypsin activity (inhibition of TAME hydrolysis). It is filed as biochemical. The conditions noted are these: read-out: ID50, trypsin. An outline of the steps: (§1)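 Inhibition of enzymatic TAME (tosylarginine methyl ester) hydrolysis, per Muramatsu et al. Values are ID50, the molar concentration of compound inhibiting 50% of each enzyme's TAME-hydrolysing activity.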

The target of assay [2] is Plasmin (Homo sapiens, UniProt P00747). The assay can be described thus: Anti-plasmin activity (inhibition of TAME hydrolysis). Conditions: read-out: ID50, plasmin. The format is biochemical. An outline of the steps:
as §1

Assay [3] deals with Kallikrein. In words: Anti-kallikrein activity (inhibition of TAME hydrolysis). It is filed as biochemical. The conditions noted are these: read-out: ID50, kallikrein. An outline of the steps:
as §1

The target of assay [4] is Thrombin (Homo sapiens, UniProt P00734). In words: biochemical. The conditions noted are these: TAME hydrolysis; read-out: ID50, thrombin.
The target of assay [5] is T2, Clr (Homo sapiens, UniProt P00736).
T2 sequence (P00736 464-705 limits assumed): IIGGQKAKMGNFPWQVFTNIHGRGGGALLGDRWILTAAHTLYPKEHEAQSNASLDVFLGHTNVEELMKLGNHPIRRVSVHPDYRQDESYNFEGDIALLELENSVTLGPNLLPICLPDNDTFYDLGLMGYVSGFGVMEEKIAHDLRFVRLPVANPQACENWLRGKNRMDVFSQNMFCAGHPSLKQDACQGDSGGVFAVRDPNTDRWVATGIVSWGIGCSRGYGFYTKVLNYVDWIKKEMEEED
T2 sequence (P00736 18-463 limits assumed): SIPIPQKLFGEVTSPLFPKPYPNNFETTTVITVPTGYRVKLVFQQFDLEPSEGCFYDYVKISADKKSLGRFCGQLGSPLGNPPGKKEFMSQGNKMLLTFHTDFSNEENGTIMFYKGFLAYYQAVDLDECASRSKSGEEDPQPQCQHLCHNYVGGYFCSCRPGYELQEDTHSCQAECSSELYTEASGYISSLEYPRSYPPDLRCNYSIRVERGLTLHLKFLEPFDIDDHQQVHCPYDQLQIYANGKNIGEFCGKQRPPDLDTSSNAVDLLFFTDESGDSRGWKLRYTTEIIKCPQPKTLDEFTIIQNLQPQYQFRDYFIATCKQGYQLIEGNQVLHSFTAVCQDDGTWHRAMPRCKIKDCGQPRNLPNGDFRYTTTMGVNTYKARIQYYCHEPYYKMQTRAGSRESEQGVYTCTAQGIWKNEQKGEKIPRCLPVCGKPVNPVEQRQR
The assay can be described thus: Anti-Cl esterase activity, Clr (AAME hydrolysis). It is filed as biochemical. The conditions noted are these: hydrolysis of AAME; read-out: Anti-Cl activity, Clr (ID50). The method, then: The anti-Cl esterase ([…]) activity was determined according to the method of Okamura et al. [K. Okamura, M. Muramatsu and B. Fujii, Biochem. Biophys.

The target of assay [6] is T3, Cls (Homo sapiens, UniProt P09871).
T3 sequence (P09871 438-688 limits assumed): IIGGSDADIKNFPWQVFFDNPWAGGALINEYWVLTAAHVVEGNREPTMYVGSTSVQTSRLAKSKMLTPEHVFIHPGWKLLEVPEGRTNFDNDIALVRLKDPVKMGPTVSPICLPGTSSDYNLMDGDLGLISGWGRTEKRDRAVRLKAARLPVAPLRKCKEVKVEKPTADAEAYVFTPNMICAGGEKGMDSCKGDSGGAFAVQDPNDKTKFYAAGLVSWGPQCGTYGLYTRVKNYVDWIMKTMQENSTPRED
T3 sequence (P09871 16-437 limits assumed): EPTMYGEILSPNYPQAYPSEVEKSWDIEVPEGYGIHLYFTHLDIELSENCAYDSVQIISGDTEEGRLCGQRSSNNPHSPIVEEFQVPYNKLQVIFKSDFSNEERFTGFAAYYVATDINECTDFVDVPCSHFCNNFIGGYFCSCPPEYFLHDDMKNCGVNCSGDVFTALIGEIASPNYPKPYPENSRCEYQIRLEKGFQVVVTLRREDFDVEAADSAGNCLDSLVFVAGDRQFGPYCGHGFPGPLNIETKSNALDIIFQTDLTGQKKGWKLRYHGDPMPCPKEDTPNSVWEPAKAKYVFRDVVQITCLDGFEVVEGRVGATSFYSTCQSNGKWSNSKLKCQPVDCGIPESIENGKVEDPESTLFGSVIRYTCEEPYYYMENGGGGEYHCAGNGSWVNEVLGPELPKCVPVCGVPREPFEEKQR
The assay can be described thus: Anti-Cl esterase activity, Cls (ATEE hydrolysis). Conditions: hydrolysis of ATEE; read-out: Anti-Cl activity, Cls (50% inhibition). The format is biochemical. The method, then: The anti-Cl esterase (Clr, Cls) activity was determined according to the method of Okamura et al. [K. Okamura, M. Muramatsu and B. Fujii, Biochem. Biophys. […] The figures in Table 2 have the following meanings:
Cls: Molar concentration of the test compound which inhibits 50% of the ability of Cls to hydrolyse ATEE (acetyltyrosin ethyl ester).

For assay [7], the system named is complement. The assay can be described thus: Inhibition of complement mediated hemolysis. The format is cell-based.

Each structure is given as a SMILES string. A value given as a limit tells only on which side of the number the result lay.

Plasmin, sequence (P00747 581-810 limits assumed, species assumed): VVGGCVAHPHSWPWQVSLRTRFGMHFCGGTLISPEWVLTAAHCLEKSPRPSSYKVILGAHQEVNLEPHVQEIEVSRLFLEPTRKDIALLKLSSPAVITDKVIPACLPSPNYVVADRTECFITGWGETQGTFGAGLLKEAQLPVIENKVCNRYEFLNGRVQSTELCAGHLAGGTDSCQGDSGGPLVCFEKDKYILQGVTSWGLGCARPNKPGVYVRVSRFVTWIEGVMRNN
Plasmin, sequence (P00747 97-580 limits assumed, species assumed): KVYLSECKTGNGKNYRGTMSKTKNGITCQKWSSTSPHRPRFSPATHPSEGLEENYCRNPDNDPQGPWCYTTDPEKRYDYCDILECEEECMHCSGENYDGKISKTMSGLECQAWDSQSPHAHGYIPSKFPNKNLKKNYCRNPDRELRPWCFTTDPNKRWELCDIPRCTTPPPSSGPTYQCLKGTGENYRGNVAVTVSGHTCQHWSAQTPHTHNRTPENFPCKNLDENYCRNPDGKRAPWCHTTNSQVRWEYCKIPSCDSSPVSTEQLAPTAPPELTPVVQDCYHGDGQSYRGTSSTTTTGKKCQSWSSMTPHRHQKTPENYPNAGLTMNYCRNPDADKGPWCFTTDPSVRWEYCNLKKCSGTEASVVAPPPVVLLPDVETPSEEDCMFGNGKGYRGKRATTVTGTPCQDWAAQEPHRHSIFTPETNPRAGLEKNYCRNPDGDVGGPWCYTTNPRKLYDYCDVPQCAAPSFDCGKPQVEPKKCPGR

Consider `N=C(N)c1ccc(OC(=O)c2ccccc2)c(Cl)c1` [Compound 26, 4-amidino-2-chlorophenyl benzoate], for which the IC50 in assay [1] turned out to be 400 nM; in assay [2], 400 nM; in assay [3], 2000 nM; in assay [4], 60 nM; in assay [5], 200 nM; in assay [6] it was 300 nM. Also, the “Inhibition of complement mediated hemolysis (%)” value (shortened to “Inhibition … (%)”) in assay [7] (compound at 1 × 10^-4) was 100.0%; in assay [7] (compound at 1 × 10^-5), 99.4%; in assay [7] (compound at 1 × 10^-6), 61.6%; in assay [7] (compound at 1 × 10^-7) it was 16.7%.

For `COc1cc(C(=N)N)ccc1OC(=O)c1ccc(NC(=N)N)cc1` [Compound 71], the IC50 in assay [1] worked out at 40 nM; in assay [2] it was 2000 nM; in assay [3], 30000 nM; in assay [4], 2000 nM; in assay [5], 4000 nM; in assay [6], 700 nM. The “Inhibition … (%)” value in assay [7] (compound at 1 × 10^-4) came to 90.6%; in assay [7] (compound at 1 × 10^-5) it was 35.3%; in assay [7] (compound at 1 × 10^-6) it was 2.7%; in assay [7] (compound at 1 × 10^-7) it was 9.0%.

On to `COc1cc(C(=N)N)ccc1OC(=O)/C=C/c1ccccc1` [Compound 31, 4-amidino-2-methoxyphenyl cinnamate], for which the IC50 in assay [1] came out at 8000 nM; in assay [2] it was 3000 nM; in assay [3] it was 40000 nM; in assay [4], 20000 nM; in assay [5] it was 2000 nM; in assay [6], 3000 nM. The “Inhibition … (%)” value in assay [7] (compound at 1 × 10^-4) was found to be 97.2%; in assay [7] (compound at 1 × 10^-5) it was 80.5%; in assay [7] (compound at 1 × 10^-6), 15.8%; in assay [7] (compound at 1 × 10^-7) it was 1.8%.

On to `COc1cc(C(=N)N)ccc1OC(=O)[C@H]1CC[C@H](CN)CC1` [Compound 17], for which the IC50 in assay [1], in assay [2], in assay [3], in assay [4], in assay [5] and in assay [6] was greater than 10000 nM each time. Moreover, the “Inhibition … (%)” value is listed as 98.6% in assay [7] (compound at 1 × 10^-4), 78.2% in assay [7] (compound at 1 × 10^-5), 20.4% in assay [7] (compound at 1 × 10^-6) and 0% in assay [7] (compound at 1 × 10^-7).

On to `CC=CC=CC(=O)Oc1ccc(C(=N)N)cc1C(=O)c1ccccc1` [Compound 6], for which the IC50 came out at 200 nM in assay [1]; 400 nM in assay [2]; 300 nM in assay [3]; 80 nM in assay [4]; 1000 nM in assay [5]; 300 nM in assay [6]. Besides, the “Inhibition … (%)” value turned out to be 100% in assay [7] (compound at 1 × 10^-4), 97.7% in assay [7] (compound at 1 × 10^-5), 52.9% in assay [7] (compound at 1 × 10^-6) and 5.0% in assay [7] (compound at 1 × 10^-7).

Take `COc1cc(C(=N)N)ccc1OC(=O)c1ccc(CN)cc1` [Compound 58, 4-amidino-2-methoxyphenyl 4-aminomethylbenzoate]: the IC50 in assay [1] is 8000 nM; in assay [2], 8000 nM; in assay [3], 2000 nM; in assay [4], greater than 10000 nM; in assay [5], greater than 10000 nM; in assay [6], 4000 nM. The “Inhibition … (%)” value in assay [7] (compound at 1 × 10^-4) is 93.4%; in assay [7] (compound at 1 × 10^-5), 20.0%; in assay [7] (compound at 1 × 10^-6), 3.0%; in assay [7] (compound at 1 × 10^-7), 0%.

Turning to `N=C(N)c1ccc(OC(=O)[C@H]2CC[C@H](CN)CC2)c(C(=O)c2ccccc2)c1` [Compound 21], the IC50 in assay [1] is greater than 10000 nM; in assay [2], greater than 10000 nM; in assay [3], greater than 10000 nM; in assay [4], greater than 10000 nM; in assay [5], greater than 10000 nM; in assay [6] it was 4000 nM. Also, the “Inhibition … (%)” value amounted to 99.3% in assay [7] (compound at 1 × 10^-4), 99.9% in assay [7] (compound at 1 × 10^-5), 60.2% in assay [7] (compound at 1 × 10^-6) and 10.9% in assay [7] (compound at 1 × 10^-7).

As to `CCCCOc1ccc(C(=O)Oc2ccc(C(=N)N)cc2[N+](=O)[O-])cc1` [Compound 44], the IC50 in assay [1] worked out at 20 nM; in assay [2], 3000 nM; in assay [3], 300 nM; in assay [4], 2000 nM; in assay [5], 4000 nM; in assay [6], 600 nM. For the same compound, the “Inhibition … (%)” value turned out to be 99.1% in assay [7] (compound at 1 × 10^-4), 94.1% in assay [7] (compound at 1 × 10^-5), 29.0% in assay [7] (compound at 1 × 10^-6) and 29.2% in assay [7] (compound at 1 × 10^-7).

As for `N=C(N)c1ccc(OC(=O)c2ccc(C=O)cc2)c(C(=O)c2ccccc2)c1` [Compound 52], the IC50 in assay [1] was 3000 nM; in assay [2] it was 200 nM; in assay [3], greater than 10000 nM; in assay [4], 90 nM; in assay [5], 5000 nM; in assay [6], 3000 nM. Moreover, the “Inhibition … (%)” value is given as 100% in assay [7] (compound at 1 × 10^-4), 98.8% in assay [7] (compound at 1 × 10^-5), 75.4% in assay [7] (compound at 1 × 10^-6) and 12.8% in assay [7] (compound at 1 × 10^-7).

As for `COC(=O)c1cc(C(=N)N)ccc1OC(=O)[C@H]1CC[C@H](CN)CC1` [Compound 19, 4-amidino-2-methyoxycarbonylphenyl trans-4-aminomethylcyclohexanecarboxylate], the IC50 in assay [1], in assay [2], in assay [3], in assay [4], in assay [5] and in assay [6] was greater than 10000 nM each time. For the same compound, the “Inhibition … (%)” value worked out at 99.2% in assay [7] (compound at 1 × 10^-4), 83.4% in assay [7] (compound at 1 × 10^-5), 15.0% in assay [7] (compound at 1 × 10^-6) and 5.0% in assay [7] (compound at 1 × 10^-7).

As for `N=C(N)c1ccc(OC(=O)c2ccc(O)cc2)c(C(=O)c2ccccc2)c1` [Compound 46, 4-amidino-2-benzoylphenyl 4-hydroxybenzoate], the IC50 in assay [1] is 50 nM; in assay [2], 600 nM; in assay [3], 300 nM; in assay [4], 40 nM; in assay [5], 2000 nM; in assay [6] it was 90 nM. Further, the “Inhibition … (%)” value in assay [7] (compound at 1 × 10^-4) is 100%; in assay [7] (compound at 1 × 10^-5) it was 98.0%; in assay [7] (compound at 1 × 10^-6), 67.6%; in assay [7] (compound at 1 × 10^-7), 5.0%.

The values are drawn from US4570006A, “Amidine compound, process for producing same and anti-complement agent comprising same” (Torii & Co. Ltd., priority 1981, dated 1986).
